Source: ChEMBL document CHEMBL1287721, “Synthesis of potent, substituted carbazoles as selective androgen receptor modulators (SARMs)” (Bioorg Med Chem Lett, 2010)
Calls of active or inactive are those of the source. No cut-off for these calls is given here.

What was measured:
Androgen receptor = target: T1, Androgen receptor (Homo sapiens, UniProt P10275); assay: Binding affinity to androgen receptor by fluorescence binding assay
T1 sequence (P10275 whole entry): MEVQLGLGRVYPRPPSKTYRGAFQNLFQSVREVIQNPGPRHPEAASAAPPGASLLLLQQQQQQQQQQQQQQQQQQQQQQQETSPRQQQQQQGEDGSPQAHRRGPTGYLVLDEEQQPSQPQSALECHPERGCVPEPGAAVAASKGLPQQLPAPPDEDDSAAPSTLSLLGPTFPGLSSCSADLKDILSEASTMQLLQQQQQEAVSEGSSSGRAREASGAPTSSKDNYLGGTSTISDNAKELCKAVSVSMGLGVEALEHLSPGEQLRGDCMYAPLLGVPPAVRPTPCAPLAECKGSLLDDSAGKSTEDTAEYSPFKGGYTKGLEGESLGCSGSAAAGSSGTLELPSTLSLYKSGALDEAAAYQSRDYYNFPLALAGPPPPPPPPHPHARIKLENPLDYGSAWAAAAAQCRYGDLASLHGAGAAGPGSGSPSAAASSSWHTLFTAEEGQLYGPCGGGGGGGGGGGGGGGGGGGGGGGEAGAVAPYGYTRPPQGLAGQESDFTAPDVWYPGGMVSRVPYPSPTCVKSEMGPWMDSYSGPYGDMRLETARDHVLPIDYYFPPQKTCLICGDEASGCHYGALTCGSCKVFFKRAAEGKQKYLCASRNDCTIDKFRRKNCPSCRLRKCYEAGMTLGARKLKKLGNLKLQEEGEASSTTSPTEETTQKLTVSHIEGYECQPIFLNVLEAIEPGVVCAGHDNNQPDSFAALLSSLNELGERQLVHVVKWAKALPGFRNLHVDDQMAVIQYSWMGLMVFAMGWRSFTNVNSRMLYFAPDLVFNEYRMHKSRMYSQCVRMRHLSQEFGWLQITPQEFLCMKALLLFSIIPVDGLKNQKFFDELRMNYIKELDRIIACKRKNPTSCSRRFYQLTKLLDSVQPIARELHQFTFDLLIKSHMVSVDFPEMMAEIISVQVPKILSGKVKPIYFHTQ

Rattus norvegicus = assay: Positive-anabolic effect in Sprague-Dawley rat assessed as increase in leavator ani muscle weight at 30 mg/kg, po administered once daily for 4 days and measured 24 hrs after the last dose by Herschberger assay; type: functional, organism-based; design: dose 30 mg/kg; settings: Muscle tissue

OC1(C(F)(F)F)CCCc2c1[nH]c1c(Cl)cc(F)cc21 (stereo unspecified) showed an IC50 (Androgen receptor) of 90 nM.

For Oc1c(Cc2ccccc2)ccc2c1[nH]c1ccc(Cl)c(Cl)c12, the IC50 (Androgen receptor) was over 1000 nM.

OC1(C(F)(F)F)c2[nH]c3c(Cl)cc(Cl)cc3c2CCC1(F)F (stereo unspecified) gave an IC50 (Androgen receptor) of 100 nM.

OC1(C(F)(F)F)CCc2c1[nH]c1c(Cl)cc(Cl)cc21 (stereo unspecified) was tested, and the IC50 (Androgen receptor) was 13 nM.

In the case of N#Cc1ccc2[nH]c3c(c2c1)CCCC3(O)C(F)(F)C(F)(F)F (stereo unspecified), the IC50 (Androgen receptor) is reported as over 10000 nM.

In the case of OC1(C(F)(F)C(F)(F)F)CCCc2c1[nH]c1cc(Cl)c(Cl)cc21 (stereo unspecified), the IC50 (Androgen receptor) is reported as 34 nM.

With OC1(C(F)(F)F)CCCc2c1[nH]c1cc(Cl)c(Cl)cc21 (stereo unspecified) the Activity (Rattus norvegicus) was “Active” and the IC50 (Androgen receptor) was 27 nM.

OC1(C(F)(F)F)CCCCc2c1[nH]c1c(Cl)cc(Cl)cc21 (stereo unspecified) showed an IC50 (Androgen receptor) of 600 nM.

CC1(O)CCCc2c1[nH]c1ccc(C#N)cc21 (stereo unspecified) was tested, and the IC50 (Androgen receptor) was 9200 nM.

For Oc1c(Cc2ccccc2)ccc2c1[nH]c1cc(Cl)c(Cl)cc12, the IC50 (Androgen receptor) was over 1000 nM.

OC1(C(F)(F)F)CCCc2c1[nH]c1c(Cl)ccc(Cl)c21 (stereo unspecified) was tested, and the IC50 (Androgen receptor) was 85 nM.

For N#Cc1ccc2[nH]c3c(c2c1)CCCC3(O)C(F)(F)F (stereo unspecified), the IC50 (Androgen receptor) was 480 nM.

OC1(C(F)(F)F)CCCc2c1[nH]c1c(Cl)cc(Cl)cc21 (stereo unspecified) gave an IC50 (Androgen receptor) of 34 nM.

CC1(O)CCCc2c1[nH]c1cc(Cl)c(Cl)cc21 (stereo unspecified) was tested, and the IC50 (Androgen receptor) was over 10000 nM.

In the case of OC1(C(F)(F)F)CCCc2c1[nH]c1ccc(Cl)c(Cl)c21 (stereo unspecified), the IC50 (Androgen receptor) is reported as 95 nM.
